Data published in patent publication US12195427B2, “MASP-2 inhibitors and methods of use” (priority 2018, dated 2025).

Molecular target: MASP-2 CCP2-SP (Homo sapiens (Human), UniProt O00187)
Assay: MASP-2 co-crystallization, X-ray crystallography and structure analysis (H-bonds, van der Waals contacts);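 for Ligand-pharmacophore element distance, pharmacophore element C2: distance from averaged pharmacophore element to bound ligand; missing value means element absent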;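 for Ligand-pharmacophore element distance, pharmacophore element C3: distance from averaged pharmacophore element to bound ligand; missing value means element absent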;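 for Ligand-pharmacophore element distance, pharmacophore element C4: distance from averaged pharmacophore element to bound ligand; missing value means element absent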;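 for Ligand-pharmacophore element distance, pharmacophore element C5: distance from averaged pharmacophore element to bound ligand; missing value means element absent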
Parameters: van der Waals contact distance, MASP-2 HIS 483 atom CD2 / van der Waals contact distance, MASP-2 HIS 483 atom NE2 / van der Waals contact distance, SER 654 C to compound atom / van der Waals contact distance, SER 654 O to compound atom / van der Waals contact distance, TRP 655 C to compound atom / van der Waals contact distance, MASP-2 GLY 528 atom CA / van der Waals contact distance TRP 655 atom CZ3 / van der Waals contact distance TRP 655 atom N / van der Waals contact distance TRP 655 atom CE3 / van der Waals contact distance GLY 656 atom C / van der Waals contact distance GLY 656 atom CA / van der Waals contact distance GLY 656 atom O / van der Waals contact distance, MASP-2 TYR 607 atom CD1 / van der Waals contact distance, MASP-2 PRO 606 atom O / d(C3,CA1) / d(CA1,N1)2 / d(H4,O1) / d(H4,O2) / d(O1,O2) / d(CA1,O2) / d(CA6,O1) / d(CA6,O2) / d(CA1,C5) / d(O2,H3) / d(N2,C2) / d(CA5,N2) / d(N2,C4) / d(N2,C6) / d(N2,CA3) / d(N2,O3) / d(O4,H2): unit not given beside the values
Details: for H-bond distance to MASP-2 GLY 656 atom N: GLY 656 N; for H-bond distance to MASP-2 SER 654 atom O: SER 654 O; for H-bond distance to MASP-2 SER 657 atom O: SER 657 O; for Ligand-pharmacophore element distance, pharmacophore element C2 / Ligand-pharmacophore element distance, pharmacophore element C3 / Ligand-pharmacophore element distance, pharmacophore element C4 / Ligand-pharmacophore element distance, pharmacophore element C5 / Ligand-pharmacophore element distance, pharmacophore element C6 / Ligand-pharmacophore element distance, pharmacophore element C7 / Ligand-pharmacophore element distance, pharmacophore element CA1 / Ligand-pharmacophore element distance, pharmacophore element CA2 / Ligand-pharmacophore element distance, pharmacophore element CA3 / Ligand-pharmacophore element distance, pharmacophore element CA4 / Ligand-pharmacophore element distance, pharmacophore element CA5 / Ligand-pharmacophore element distance, pharmacophore element CA6: Table A4-1; for A(N1, CA1, O1) a): all compounds with protonatable center N1 except Methyl-amino-pyridine; for Pharmacophore protein distance to MET_658 (first MET_658 column) / Pharmacophore protein distance to MET_658 (second MET_658 column) / Pharmacophore protein distance to GLY_528 / Pharmacophore protein distance to PHE_529 / Pharmacophore protein distance to PRO_608 / Pharmacophore protein distance to SER_611 / Pharmacophore protein distance to TRP_655: Table A8-6, nearest protein atom in cell to the left; for Pharmacophore protein distance to MET_658 (first MET_658 column): 6th residue column; for Pharmacophore protein distance to MET_658 (second MET_658 column): 9th residue column; for Pharmacophore protein distance to TRP_655: pharmacophore elements C6, CA3, O3, H1
Procedure, shortened: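 First, CCP2-SP constructs with or without a 6His tag are produced in E. coli. Crystals are then soaked once or twice with inhibitor, cryoprotected in 20% glycerol or frozen directly, and diffracted at synchrotron beamlines. Phasing uses molecular replacement with parts of 1Q3X.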

[1] = Table A5-1 pharmacophore: distance between elements, S2/S1 region
[2] = Table A5-2 pharmacophore distance, S3/S4 region
[3] = Table A7-1, between pharmacophore elements of the bound compound
[4] = Table A7-2, between pharmacophore elements of the bound compound

Chain of MASP-2 CCP2-SP (O00187 445-686): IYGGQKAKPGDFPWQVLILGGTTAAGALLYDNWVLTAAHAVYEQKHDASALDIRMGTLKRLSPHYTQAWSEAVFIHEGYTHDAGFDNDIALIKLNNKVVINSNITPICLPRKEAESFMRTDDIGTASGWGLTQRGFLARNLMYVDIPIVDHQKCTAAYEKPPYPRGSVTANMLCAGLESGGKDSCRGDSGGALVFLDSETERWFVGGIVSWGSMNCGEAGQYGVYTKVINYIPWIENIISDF
Chain of MASP-2 CCP2-SP (O00187 364-432 partner): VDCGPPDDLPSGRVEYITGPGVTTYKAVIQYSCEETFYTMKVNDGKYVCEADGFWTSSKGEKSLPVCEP

N=C(N)c1ccc(CNC(=O)[C@@H]2CCN2C(=O)[C@H](NCC(=O)O)C2Cc3ccccc3C2)cc1 [compound 1129]
H-bond distance to MASP-2 ASP 627 atom OD1 (Table A1 (H-Bonds), ASP 627 OD1): 2.79 | H-bond distance to MASP-2 GLN 665 atom OE1 (Table A1 (H-Bonds), GLN 665 OE1): 2.76 | H-bond distance to MASP-2 GLY 656 atom N (Table A1 (H-Bonds)): 2.93 | H-bond distance to MASP-2 SER 628 atom OG (Table A1 (H-Bonds), SER 628 OG): 2.86 | H-bond distance to MASP-2 SER 654 atom O (Table A1 (H-Bonds)): 2.84 | H-bond distance to MASP-2 SER 657 atom O (Table A1 (H-Bonds)): 2.92 | van der Waals contact distance, MASP-2 HIS 483 atom CD2 (Table A2-1): 3.75 | van der Waals contact distance, MASP-2 PHE 529 atom CE1 (Table A2-3): 3.52 | van der Waals contact distance, MASP-2 PRO 606 atom C (Table A2-4): 3.86 | van der Waals contact distance, MASP-2 amino acid atom to compound atom (Table A2-9 second part, ARG 630, AA atoms N, NE, NH1): 3.69 | van der Waals contact distance, VAL 653 CG1 to compound atom (Table A2-11): 3.9 | van der Waals contact distance GLY 656 atom C (Table A2-13, MASP-2 GLY 656 C): 3.54 | Ligand-pharmacophore element distance, pharmacophore element C2: 3.15 | Ligand-pharmacophore element distance, pharmacophore element C3: 0 | Ligand-pharmacophore element distance, pharmacophore element C4: 0 | Ligand-pharmacophore element distance, pharmacophore element C5: 0 | Ligand-pharmacophore element distance, pharmacophore element C6: 0 | Ligand-pharmacophore element distance, pharmacophore element C7: 0 | Ligand-pharmacophore element distance, pharmacophore element CA1: 0.35 | Ligand-pharmacophore element distance, pharmacophore element CA2: 0 | Ligand-pharmacophore element distance, pharmacophore element CA3: 0 | Ligand-pharmacophore element distance, pharmacophore element CA4: 0 | Ligand-pharmacophore element distance, pharmacophore element CA5: 0.67 | Ligand-pharmacophore element distance, pharmacophore element CA6: 0 | Ligand-pharmacophore element distance, pharmacophore element H1 (Table A4-2, element H1): 0 | Ligand-pharmacophore element distance, pharmacophore element H2 (Table A4-2, element H2): 0 | Ligand-pharmacophore element distance, pharmacophore element H3 (Table A4-2, element H3): 1.34 | Ligand-pharmacophore element distance, pharmacophore element H4 (Table A4-2, element H4): 3.79 | Ligand-pharmacophore element distance, pharmacophore element N1 (Table A4-2, element N1): 1.8 | Ligand-pharmacophore element distance, pharmacophore element N2 (Table A4-2, element N2): 1.8 | Ligand-pharmacophore element distance, pharmacophore element O1 (Table A4-2, element O1): 0.39 | Ligand-pharmacophore element distance, pharmacophore element O2 (Table A4-2, element O2): 0.58 | Ligand-pharmacophore element distance, pharmacophore element O3 (Table A4-2, element O3): 0 | Ligand-pharmacophore element distance, pharmacophore element O4 (Table A4-2, element O4): 0 | d(CA1,N1) [1]: 3.60 | d(CA1,O1) [1]: 4.47 | d(CA1,O2) [1]: 4.37 | d(H4,O1) [1]: 5.00 | d(H4,O2) [1]: 4.63 | d(O1,O2) [1]: 3.49 | d(CA5,N2) [2]: 5.54 | d(N2,C2) [2]: 2.76 | d(O2,H3) [2]: 2.83 | d(O2,N2) [2]: 3.19 | a(CA1, O1, O2) (Table A6-1 pharmacophore angle): 111.77 | a(O1, O2, H4) (Table A6-1 pharmacophore angle): 137.67 | A(N1, CA1, O1) a) (Table A6-1 pharmacophore angle): 164.78 | a(O1, O2, H3) (Table A6-2 pharmacophore angle): 122.63 | a(O1, O2, N2) (Table A6-2 pharmacophore angle): 127.76 | a(O2, N2, C2) (Table A6-2 pharmacophore angle): 110.31 | Pharmacophore torsion angle a(H4, O1, O2, H3) [3]: 104.70 | Pharmacophore torsion angle a(H4, O1, O2, N2) [3]: 133.45 | Pharmacophore torsion angle a(N1, CA1, O2, H4) [3]: −139.56 | Pharmacophore torsion angle a(O1, H4, O2, CA1) [3]: −65.27 | Pharmacophore torsion angle a(O1, O2, N2, C2) [3]: 95.54 | Pharmacophore torsion angle a(O1, O2, N2, CA5) [4]: 145.95 | Pharmacophore protein distance to MET_658 (first MET_658 column): 2.85 | Pharmacophore protein distance to MET_658 (second MET_658 column): 3.11 | Pharmacophore protein distance to GLY_528: 3.51 | Pharmacophore protein distance to PHE_529: 2.98 | Pharmacophore protein distance to PRO_608: 4.05 | Pharmacophore protein distance to SER_611: 2.58 | Pharmacophore protein distance to TRP_655: 3.31

C[C@H](NC(=O)[C@@H](CCc1ccccc1)NCCCc1ccc(O)cc1)C(=O)NCc1ccc(C(=N)N)cc1 [compound 1145]
H-bond distance to MASP-2 GLY 656 atom N (Table A1 (H-Bonds)): 3.09 | H-bond distance to MASP-2 GLY 656 atom O (Table A1 (H-Bonds), GLY 656 O): 2.58 | H-bond distance to MASP-2 SER 628 atom O (Table A1 (H-Bonds), SER 628 O): 2.84 | H-bond distance to MASP-2 SER 654 atom O (Table A1 (H-Bonds)): 2.84 | H-bond distance to MASP-2 SER 657 atom O (Table A1 (H-Bonds)): 2.81 | van der Waals contact distance, MASP-2 HIS 483 atom CD2 (Table A2-1): 3.75 | van der Waals contact distance, MASP-2 PHE 529 atom CD1 (Table A2-3): 3.54 | van der Waals contact distance, MASP-2 TYR 607 atom CD2 (Table A2-4): 3.89 | van der Waals contact distance, VAL 653 CG1 to compound atom (Table A2-11): 3.9 | van der Waals contact distance TRP 655 atom CE3 (Table A2-13, MASP-2 TRP 655 CE3, compound atom in line below): 3.49 | van der Waals contact distance TRP 655 atom N (Table A2-13, MASP-2 TRP 655 N): 3.79 | van der Waals contact distance, MASP-2 amino acid atom to compound atom (Table A2 section before Table A2-8): 3.85

C[C@H](NC(=O)[C@@H](CCc1ccccc1)NCc1ccc(N2CCOCC2)cc1)C(=O)NCc1ccc(C(=N)N)cc1 [compound 1149]
H-bond distance to MASP-2 ASP 627 atom OD2 (Table A1 (H-Bonds), ASP 627 OD2): 3.09 | H-bond distance to MASP-2 CYS 660 atom SG (Table A1 (H-Bonds), CYS 660 SG): 3.16 | H-bond distance to MASP-2 GLY 656 atom N (Table A1 (H-Bonds)): 3.24 | H-bond distance to MASP-2 SER 654 atom O (Table A1 (H-Bonds)): 2.7 | H-bond distance to MASP-2 SER 657 atom O (Table A1 (H-Bonds)): 2.75 | H-bond distance to MASP-2 SER 657 atom OG (Table A1 (H-Bonds), SER 657 OG): 3.19 | van der Waals contact distance, MASP-2 ASP 526 atom C (Table A2-1): 3.29 | van der Waals contact distance, MASP-2 ASP 526 atom CA (Table A2-1): 3.87 | van der Waals contact distance, MASP-2 HIS 483 atom CD2 (Table A2-1): 3.81 | van der Waals contact distance, MASP-2 GLY 528 atom N (Table A2-2): 3.4 | van der Waals contact distance, MASP-2 PHE 529 atom CE1 (Table A2-3): 3.68 | van der Waals contact distance, SER 654 C to compound atom (Table A2-11): 3.68 | Ligand-pharmacophore element distance, pharmacophore element C2: 0 | Ligand-pharmacophore element distance, pharmacophore element C3: 0 | Ligand-pharmacophore element distance, pharmacophore element C4: 3.8 | Ligand-pharmacophore element distance, pharmacophore element C5: 0 | Ligand-pharmacophore element distance, pharmacophore element C6: 0 | Ligand-pharmacophore element distance, pharmacophore element C7: 0 | Ligand-pharmacophore element distance, pharmacophore element CA1: 0.35 | Ligand-pharmacophore element distance, pharmacophore element CA2: 0 | Ligand-pharmacophore element distance, pharmacophore element CA3: 0 | Ligand-pharmacophore element distance, pharmacophore element CA4: 1.47 | Ligand-pharmacophore element distance, pharmacophore element CA5: 0 | Ligand-pharmacophore element distance, pharmacophore element CA6: 4.96 | d(CA1,N1) [1]: 3.57 | d(CA1,O1) [1]: 5.15 | d(CA1,O2) [1]: 9.42 | d(CA6,O1) [1]: 7.04 | d(CA6,O2) [1]: 8.45 | d(H4,O1) [1]: 5.59 | d(H4,O2) [1]: 8.32 | d(O1,O2) [1]: 8.70 | d(N2,C4) [2]: 7.94 | d(O2,H3) [2]: 5.29 | d(O2,N2) [2]: 4.42 | a(CA1, O1, O2) (Table A6-1 pharmacophore angle): 147.27 | a(O1, CA6, O2) (Table A6-1 pharmacophore angle): 131.55 | a(O1, O2, H4) (Table A6-1 pharmacophore angle): 105.44 | A(N1, CA1, O1) a) (Table A6-1 pharmacophore angle): 168.87 | a(O1, O2, H3) (Table A6-2 pharmacophore angle): 54.88 | a(O1, O2, N2) (Table A6-2 pharmacophore angle): 62.73 | a(O2, N2, C4) (Table A6-2 pharmacophore angle): 154.82 | a(O2, N2, C4) 2 (Table A6-2 pharmacophore angle): 49.80 | Pharmacophore torsion angle a(CA6, O1, H4, O2) [3]: 55.30 | Pharmacophore torsion angle a(H4, O1, O2, H3) [3]: 105.58 | Pharmacophore torsion angle a(H4, O1, O2, N2) [3]: 125.02 | Pharmacophore torsion angle a(N1, CA1, O2, H4) [3]: −109.82 | Pharmacophore torsion angle a(O1, H4, O2, CA1) [3]: −48.11 | Pharmacophore torsion angle a(O1, O2, N2, CA4) [4]: 155.91 | Pharmacophore protein distance to MET_658 (first MET_658 column): 2.55 | Pharmacophore protein distance to MET_658 (second MET_658 column): 3.25 | Pharmacophore protein distance to GLY_528: 3.92 | Pharmacophore protein distance to PHE_529: 2.93 | Pharmacophore protein distance to PRO_608: 4.39 | Pharmacophore protein distance to SER_611: 2.96 | Pharmacophore protein distance to TRP_655: 3.27
